Results taken from article PMC6886544.

How the values were obtained:
EGFR-T790M = EGFR-T790M (Homo sapiens, UniProt P00533, T790M); assay: SelectScreen kinase profiling, EGFR-T790M; type: biochemical; conditions: mean ± SD of one measurement in duplicates
Description: (§1) Kinase profiling of compound 17a at a concentration of 1 µM generated with the SelectScreen® Profiling Service from Life Technologies.
(§2) Figure S2. Kinase profiling of compound 17a, Illustration as waterfall plot. 9 Kinases harboring a Cysteine isostructural to Cys797 in EGFR are highlighted
(§3) Kinase % inhibition Kinase % inhibition […]
(§4) aValues are the mean ± SD of one measurement in duplicates; bKinases harboring a Cysteine isostructural to Cys797 […]
(§5) (1 picture or pasted object on this page, not shown here)

[1] = tested on: EGFR and downstream cascade phosphorylation in A431 cells; assay: Western blot analysis in A431 cells; type: cell-based; conditions: 1 h inhibitor then EGF stimulation
Description: and incubated at 37 °C and 5% CO2. On day 2 cells were starved over night with media containing 0.5% FBS to be incubated on day 3 for 1 h with EGFR inhibitors following an additional 30 min of EGF stimulation at 50 ng/mL. The media was discarded and cells were washed once with DPBS
1x. Using 100 μL per well of lysis buffer, cells were then scraped off and lysed while rotating (Stuart Scientific, Staffordshire, UK) for 1 h at 4 °C. […] Supernatant was transferred into new tube and protein concentrations were determined with the Bio-Rad Protein Assay (Bio-Rad Laboratories, Hercules, CA). […]
captured and quantified using a FUJI LAS3000 system with Science Lab 2001 ImageGauge 4.0 software (Fujifilm Medial Systems, Stamford CT, USA). […]
glycerol, 1 mM TCEP, pH 8) on ice for 1 h. We analyzed the aliquots by ESI-MS using an Thermo Fisher Scientific Dionex UltiMate 3000 HPLC system connected to a Thermo Fisher Scientific Velos Pro (2d ion trap). Therefore, 5 μL of sample was injected and separated using a Vydac 214TP C4 5 μm column (150 mm x 2.1 mm) starting at 20% of solvent B for 5 minutes followed by a gradient up to 90% of solvent B over 14 min with a flow rate of 210 μL/min with 0.1% TFA in water as solvent A and 0.1% TFA in MeCN as solvent B. A mass range of 700 to 2000 m/z was scanned and raw data was deconvoluted and analyzed with MagTran software (Z.Q. Zhang, A.G. […]

TXK = TXK (Homo sapiens, UniProt P42681); assay: SelectScreen kinase profiling, TXK; type: biochemical; conditions: mean ± SD of one measurement in duplicates
Sequence of TXK (P42681 whole entry): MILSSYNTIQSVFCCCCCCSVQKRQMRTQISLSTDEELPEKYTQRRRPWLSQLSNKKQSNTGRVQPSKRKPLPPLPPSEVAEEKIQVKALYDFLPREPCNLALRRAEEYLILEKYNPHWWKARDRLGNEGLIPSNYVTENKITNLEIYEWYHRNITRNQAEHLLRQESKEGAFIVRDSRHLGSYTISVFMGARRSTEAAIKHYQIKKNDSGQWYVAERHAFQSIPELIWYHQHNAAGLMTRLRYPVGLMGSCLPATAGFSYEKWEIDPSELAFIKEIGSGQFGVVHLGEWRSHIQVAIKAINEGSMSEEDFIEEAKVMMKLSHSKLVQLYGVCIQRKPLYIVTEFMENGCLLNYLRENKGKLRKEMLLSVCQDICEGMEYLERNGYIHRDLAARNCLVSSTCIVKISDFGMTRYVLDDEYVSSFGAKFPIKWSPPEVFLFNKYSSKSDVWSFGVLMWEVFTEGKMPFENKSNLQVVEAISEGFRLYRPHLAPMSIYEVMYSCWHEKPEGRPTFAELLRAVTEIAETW
Description: as §1, §2, §3, §4, §5

Sequence of EGFR-T790M (P00533 25-1210 T790M): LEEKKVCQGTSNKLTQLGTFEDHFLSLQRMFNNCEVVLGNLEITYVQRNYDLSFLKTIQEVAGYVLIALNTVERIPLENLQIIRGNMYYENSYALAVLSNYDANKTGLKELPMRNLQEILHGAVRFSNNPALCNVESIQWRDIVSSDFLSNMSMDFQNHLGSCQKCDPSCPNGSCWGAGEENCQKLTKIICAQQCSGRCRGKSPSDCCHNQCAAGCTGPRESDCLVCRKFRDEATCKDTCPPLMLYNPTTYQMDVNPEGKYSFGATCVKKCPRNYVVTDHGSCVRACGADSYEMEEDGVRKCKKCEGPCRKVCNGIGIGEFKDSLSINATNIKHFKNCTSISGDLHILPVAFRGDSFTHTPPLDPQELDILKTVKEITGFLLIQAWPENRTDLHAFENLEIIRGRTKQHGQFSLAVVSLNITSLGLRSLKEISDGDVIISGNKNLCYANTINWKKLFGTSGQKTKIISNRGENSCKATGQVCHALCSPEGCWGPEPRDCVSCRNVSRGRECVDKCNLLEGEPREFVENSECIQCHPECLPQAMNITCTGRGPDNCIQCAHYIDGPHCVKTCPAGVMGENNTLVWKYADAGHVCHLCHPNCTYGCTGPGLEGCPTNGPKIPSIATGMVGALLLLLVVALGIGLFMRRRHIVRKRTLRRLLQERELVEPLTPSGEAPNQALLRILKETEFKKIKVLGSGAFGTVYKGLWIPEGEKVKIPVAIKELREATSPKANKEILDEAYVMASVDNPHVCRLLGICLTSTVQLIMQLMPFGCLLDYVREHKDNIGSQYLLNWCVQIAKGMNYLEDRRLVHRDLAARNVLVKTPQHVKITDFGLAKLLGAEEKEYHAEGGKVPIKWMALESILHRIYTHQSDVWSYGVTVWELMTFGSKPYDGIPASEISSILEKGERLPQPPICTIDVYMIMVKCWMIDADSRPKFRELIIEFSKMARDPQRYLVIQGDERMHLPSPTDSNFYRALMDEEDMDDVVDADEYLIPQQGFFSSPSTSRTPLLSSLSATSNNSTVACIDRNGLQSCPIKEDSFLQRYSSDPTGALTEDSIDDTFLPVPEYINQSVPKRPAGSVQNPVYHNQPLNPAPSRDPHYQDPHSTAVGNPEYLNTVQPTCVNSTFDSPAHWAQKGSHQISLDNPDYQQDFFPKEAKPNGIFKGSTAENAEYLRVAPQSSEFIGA

C=CC(=O)Nc1cccc(-c2c(-c3ccc(CN4CCN(C)CC4)cc3)[nH]c3ncnc(OC)c23)c1 [Compound 17a]
inhibition at 1 µM (EGFR-T790M): 89 ± 2%
concentration at which phosphorylation of EGFR and downstream proteins was reduced [1]: about 1 μM
inhibition at 1 µM (TXK): 77%
